For assay [1], the system named is purified NO synthase from pig cerebellum or from pig liver. As to the kind of experiment: Activity assay of purified NOS (3H-L-arginine to 3H-L-citrulline conversion). It counts as biochemical. The note with it: incubated in the presence of 5 kU/ml catalase for 45 minutes.
For assay [2] the test system is unchanged. Described as above. It counts as biochemical. The note with it: substance 100 μM, in the presence of 2 μM tetrahydrobiopterin, 15 min at 37° C. As to the method: The inhibition of the activity of purified nitric oxide synthase (NOS) by compounds of the general formula I can be determined as follows.
(§1) In this activity assay the L-citrulline which is a coproduct of the formation of NO by purified NOS is quantitatively measured. ^3H-radiolabeled L-arginine is employed as substrate of the enzyme reaction and is converted into ^3H-L-citrulline and NO. After completion of the enzyme incubation, generated L-citrulline is removed from unused L-arginine by ion exchange chromatography from the reaction mixture; the ^3H activity measured by liquid scintillation then is corresponds to the amount of L-citrulline, which is a direct measure of the activity of NOS.
The basic medium for carrying out the enzyme reaction is TE buffer (triethanolamine, EDTA, pH 7.0).
The final volume of each incubation is 100 μl. The reaction mixture is obtained by mixing the following 6 components on ice: • 1. “REA-Mix” (pH 7.0) which contains triethanolamine, calcium chloride, magnesium chloride, EDTA, L-arginine, calmodulin and flavin adenine dinucleotide (FAD); • 2. freshly prepared stock solution of β-nicotinamide adenine dinucleotide phosphate, reduced form (NADPH); • 3. (6R)-5,6,7,8-tetrahydro-L-biopterin dihydro-chloride stock solution (BH4) or —for experiments without BH4-instead TE buffer; • 4. purified NO synthase from pig cerebellum or from pig liver; • 5.
(§2) After mixing of the components on ice, the reaction mixture was immediately incubated in a water bath at 37° C. for 15 minutes. […] After this incubation time, the reaction was stopped by addition of 900 μl of ice-cold “stop buffer” (20 mM sodium acetate, 2 mM EDTA, pH 5.5), and the mixture (total volume now 1.0 ml) was placed on ice. To remove the unreacted ^3H-L-arginine, the mixture was loaded onto an ion exchange column with 0.8 ml of Dowex AG 50 WX-8 (100-200 mesh) which has previously been washed and equilibrated with 2 ml of stop buffer. After loading of the sample, the column was eluted twice with 1 ml of water each time. The flow-through of the sample and the eluate were collected in scintillation vessels and […] (total volume 3 ml). 9 ml of scintillator solution were added to the 3 ml of aqueous measurement solution, and the homogeneous mixture was measured in a Tricarb 2500 TR (Packard) liquid scintillation counter for 1 minute for each sample. […] Each substance was tested for an antagonistic effect in a concentration of 100 μM in the presence of 2 μM tetrahydrobiopterin, and for an agonistic effect on NOS in the absence of tetrahydrobiopterin.
All incubations were carried out on triplicates. Each experiment was repeated three times with different enzyme preparations.

The target in a further assay is NOS-I (Homo sapiens, UniProt P29475). The assay can be described thus: Inhibition of human NOS isoforms: NOS-I. Type of assay: biochemical. As to the method: as §1, §2
In addition, the relative selectivities of the antipterin inhibitors for the three known human NOS isoforms were measured. So doing, the IC50 values for NOS-II/NOS-I and NOS-III/NOS-I were formed (compare Table 2).

A further assay has as its target NOS-III (Homo sapiens, UniProt P29474). The assay can be described thus: Inhibition of human NOS isoforms: NOS-III. Type of assay: biochemical. The procedure: (§3) After mixing of the components on ice, the reaction mixture was immediately incubated in a water bath at 37° C. for 15 minutes. […] After this incubation time, the reaction was stopped by addition of 900 μl of ice-cold “stop buffer” (20 mM sodium acetate, 2 mM EDTA, pH 5.5), and the mixture (total volume now 1.0 ml) was placed on ice. To remove the unreacted ^3H-L-arginine, the mixture was loaded onto an ion exchange column with 0.8 ml of Dowex AG 50 WX-8 (100-200 mesh) which has previously been washed and equilibrated with 2 ml of stop buffer. After loading of the sample, the column was eluted twice with 1 ml of water each time. The flow-through of the sample and the eluate were collected in scintillation vessels and […] (total volume 3 ml). 9 ml of scintillator solution were added to the 3 ml of aqueous measurement solution, and the homogeneous mixture was measured in a Tricarb 2500 TR (Packard) liquid scintillation counter for 1 minute for each sample. […] In addition, the relative selectivities of the antipterin inhibitors for the three known human NOS isoforms were measured. So doing, the IC50 values for NOS-II/NOS-I and NOS-III/NOS-I were formed (compare Table 2).

The target in the next assay is NOS-II (Homo sapiens, UniProt P35228). As to the kind of experiment: Inhibition of human NOS isoforms: NOS-II. Type of assay: biochemical. As to the method:
as §3

Assay [3] deals with intact rat alveolar macrophages. The note with it: cited from earlier work.
Another assay relates to NO synthase. The note with it: literature reports on BH4 analogues; cited from earlier work.

As to “2-amino-4-(dibenzylamino)-6-(3,4-dimethoxyphenyl)-pteridine hemihydrate [Example 22]”, in assay [1], the IC50 is 2 µM. Further, the “Remaining activity (% of Vmax)” value in assay [2] is 0 % of Vmax.

As for “2-amino-4-(diethylamino)-6-(4-chlorophenyl)-5,6,7,8-tetrahydropteridine dihydrochloride hemi-hydrate [Example 48]”, the IC50 is 8 µM in assay [1]; 41.5 µM at NOS-I; 45.4 µM on NOS-III (human NOS-III); 300 µM on NOS-II (human NOS-II, enzyme inhibition not complete up to 300 μM, IC50 values extrapolated). In addition, the “Activity (% of control)” value on NOS-I is 2 ± 0 % of control; on NOS-III (human NOS-III) it was 27 ± 1 % of control; on NOS-II (human NOS-II), 74 ± 4 % of control. The “Ratio NOS-III/I” value at NOS-III (ratio of IC50 values NOS-III/NOS-I) stood at 1.1. Besides, the “Ratio NOS-II/I” value at NOS-II (ratio of IC50 values NOS-II/NOS-I) amounted to 7.2. Further, the “Remaining activity (% of Vmax)” value in assay [2] is recorded as 0 % of Vmax.

With `Nc1nc(N(Cc2ccccc2)Cc2ccccc2)c2nc(-c3ccc(Cl)cc3)cnc2n1.O.O` [Example 20, 2-amino-4-(dibenzylamino)-6-(4-chlorophenyl)-pteridine dihydrate], the IC50 in assay [1] came out at 3.5 µM. Further, the “Remaining activity (% of Vmax)” value in assay [2] is reported as 0 % of Vmax.

With `COc1ccc(-c2cnc3nc(N)nc(N(Cc4ccccc4)Cc4ccccc4)c3n2)cc1` [Example 21, 2-amino-4-(dibenzylamino)-6-(4-methoxyphenyl)-pteridine], the “Activity (% of control)” value is reported as 27 ± 1 % of control on NOS-I, 68 ± 2 % of control on NOS-III (human NOS-III) and 81 ± 6 % of control on NOS-II (human NOS-II). The “Remaining activity (% of Vmax)” value in assay [2] was 0 ± 0.05 % of Vmax.

Consider `CCCN(CCC)c1nc(N)nc2c1NC(c1ccccc1)CN2.Cl.Cl.Cl.O` (stereo not drawn) [Example 46, 2-amino-4-(di-n-propylamino)-6-phenyl-5,6,7,8-tetrahydropteridine trihydrochloride hydrate], for which the “Activity (% of control)” value at NOS-I is recorded as 1 ± 0.1 % of control; at NOS-III (human NOS-III), 27 ± 0.2 % of control; on NOS-II (human NOS-II), 68 ± 1 % of control. For the same compound, in assay [2], the “Remaining activity (% of Vmax)” value is given as 8 ± 0.05 % of Vmax.

For `CCCN(CCC)c1nc(N)nc2c1NC(c1ccc(OC)cc1)CN2.Cl.Cl.O.O` (stereo not drawn) [Example 47, 2-amino-4-(di-n-propylamino)-6-(4-methoxyphenyl)-5,6,7,8-tetrahydropteridine dihydrochloride dihydrate], the “Activity (% of control)” value is recorded as 0 ± 0.1 % of control at NOS-I, 31 ± 3 % of control at NOS-III (human NOS-III) and 78 ± 0.4 % of control at NOS-II (human NOS-II). Further, the “Remaining activity (% of Vmax)” value in assay [2] is 0 % of Vmax.

On to `Nc1nc(NCC2CCCCC2)c2c(n1)NCC(c1ccc(Cl)cc1)N2` (stereo not drawn) [Example 49, 2-amino-4-(cyclohexylmethylamino)-6-(4-chloro-phenyl)-5,6,7,8-tetrahydropteridine dihydro-chloride hydrate], for which the “Activity (% of control)” value at NOS-I is 0 ± 0.1 % of control; on NOS-III (human NOS-III), 18 ± 1 % of control; at NOS-II (human NOS-II), 78 ± 6 % of control. Besides, the “Remaining activity (% of Vmax)” value in assay [2] is 0 % of Vmax.

As to `Nc1nc2ncc(C(=O)O)nc2c(=O)[nH]1` [Pterin-6-carboxylic acid], the “inhibition of NO production” value in assay [3] was “no effect”.

As to `C[C@H](O)C(=O)C1=Nc2c(nc(N)[nH]c2=O)NC1` [sepiapterin], the “inhibition of NO production” value in assay [3] was “inhibition of NO production”.

`Nc1nc2c(c(=O)[nH]1)NC(C(O)C(O)CO)CN2` (stereo not drawn) [tetrahydro-neopterin]: in the assay with NO synthase, the “effect on NO production / NO synthase” value was “no significant effects”.

As for `Nc1nc2c(c(=O)[nH]1)NC(CNc1ccc(C(=O)N[C@@H](CCC(=O)O)C(=O)O)cc1)CN2` (stereo partly drawn) [tetrahydrofolic acid], in the assay on NO synthase, the “effect on NO production / NO synthase” value is “no significant effects”.

Turning to `Nc1nc(=O)c2[nH]c(=O)cnc2[nH]1` [xanthopterin], in the assay with NO synthase, the “effect on NO production / NO synthase” value was “no significant effects”.

In the case of Biopterin, the “effect on NO production / NO synthase” value in the assay with NO synthase is given as “no significant effects”.

Values taken from patent US6844343B1, “N-substituted 4-aminopteridines, synthesis and use thereof as pharmaceutical agent” (Vasopharm Biotech GmbH, priority 1999, dated 2005).
